Measurements from the supplement of paper PMC11208160.

Assay: recombinant barcode read abundance after kanamycin selection (control-corrected) (log10(CPM+1)); higher = more efficient recombination; sequences stand for … in AGTGCAGAGAAAATCGGCCAGTTTTCTCTGCCTGCAGTCCGCATGCCGT…AGATTTATGCAGCGGACTGCCTTTCTCCCAAAGTGATAAACCGGACAGTATCATGGACCGGTTTTCCCGGTAATCCGTATTTGCAAGGTTGGTTTCACT; site = the 11-nt target
Outline: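 Targets and IS621 bridge RNA target-binding loops were paired in oligos, each with a promoter, a barcode and the J23119-driven first 104 bridge RNA bases. A vector carrying the remaining 73 bp and a T7-inducible recombinase received these by Gibson cloning, and the pool was co-electroporated into E. coli with a donor plasmid. Duplicate plates contained chloramphenicol/ampicillin LB agar (control) or chloramphenicol/ampicillin/kanamycin with 0.1 mM IPTG. Recombination efficiency comes from averaged, control-corrected counts per million of recombinant-junction barcodes, reported as log10(CPM+1).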
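Note: IS621 recombinase and bridge RNA in Escherichia coli cells.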

Row | Sequence | recombinant barcode read abundance (log10)
1 | GACATCTCTTGGGTTCTAACCTGTTGCCT (site GACATCGCTAG) | 0.0954
2 | GACATCTCTTGGGTTCTAACCTGTTGCCT (site GACATCTCTAG) | 1.19
3 | GACCGAGCTTGGGTTCTAACCTGTTGCCT (site GACCGAGCTAG) | 1.33
4 | GACCGAGCTTGGGTTCTAACCTGTTGCCT (site GACCGCGCTAG) | 0.0201
5 | GACCGAGCTTGGGTTCTAACCTGTTGCCT (site GACCGGGCTAG) | 0.145
6 | GACCGAGCTTGGGTTCTAACCTGTTGCCT (site GACCGTGCTAG) | 0.345
7 | GACCGTCCTTGGGTTCTAACCTGTTGCGT (site GACCGTCCTAA) | 0.306
8 | GACCGTCCTTGGGTTCTAACCTGTTGCGT (site GACCGTCCTAC) | 2.65
9 | GACCGTCCTTGGGTTCTAACCTGTTGCGT (site GACCGTCCTAG) | 0.573
10 | GACCGTCCTTGGGTTCTAACCTGTTGCGT (site GACCGTCCTAT) | 1.14
11 | GACCTGGCTTGGGTTCTAACCTGTTGCCG (site GACCTGACTTG) | 0.176
12 | GACCTGGCTTGGGTTCTAACCTGTTGCCG (site GACCTGGCTCG) | 0.886
13 | GACGCAACTTGGGTTCTAACCTGTTGCAT (site GACGCAACTAT) | 0.0836
14 | GACGCAACTTGGGTTCTAACCTGTTGCAT (site GACGCTTCTAT) | 0.0419
15 | GACGCCACTTGGGTTCTAACCTGTTGCCT (site AACGCCACTAG) | 0.162
16 | GACGCCACTTGGGTTCTAACCTGTTGCCT (site GACGCCACTAG) | 0.425
17 | GACGCCTCTTGGGTTCTAACCTGTTGCCT (site AACGCCTCTAG) | 0.227
18 | GACGCCTCTTGGGTTCTAACCTGTTGCCT (site CACGCCTCTAG) | 0.202
19 | GACGCCTCTTGGGTTCTAACCTGTTGCCT (site GACGCCTCTAG) | 0.47
20 | GACGCCTCTTGGGTTCTAACCTGTTGCCT (site TACGCCTCTAG) | 0
21 | GACGCCTCTTGGGTTCTAACCTGTTGCGC (site GACGCCTCTGC) | 2.25
22 | GACGCCTCTTGGGTTCTAACCTGTTGCGC (site TTGAAACCTAG) | 0.26

Row | Sequence | recombinant barcode read abundance (log10)
23 | GACGGACCTTGGGTTCTAACCTGTTGCTA (site ATAACGGCTAG) | 0.0648
24 | GACGGACCTTGGGTTCTAACCTGTTGCTA (site GACGGACCTTA) | 1.26
25 | GACGGATCTTGGGTTCTAACCTGTTGCCT (site GACGGATCTAA) | 0.842
26 | GACGGATCTTGGGTTCTAACCTGTTGCCT (site GACGGATCTAC) | 0.101
27 | GACGGATCTTGGGTTCTAACCTGTTGCCT (site GACGGATCTAG) | 0.212
28 | GACGGATCTTGGGTTCTAACCTGTTGCCT (site GACGGATCTAT) | 0.0859
29 | GACGGCACTTGGGTTCTAACCTGTTGCGG (site GACGGCACTCC) | 2.56
30 | GACGGCACTTGGGTTCTAACCTGTTGCGG (site TCTCATGCTAT) | 0.166
31 | GACGGCTCTTGGGTTCTAACCTGTTGCCT (site GACGGCTCTAG) | 1.3
32 | GACGGCTCTTGGGTTCTAACCTGTTGCCT (site GCCGGCTCTAG) | 0.365
33 | GACGGGGCTTGGGTTCTAACCTGTTGCAG (site GACGGAGCTCA) | 0.753
34 | GACGGGGCTTGGGTTCTAACCTGTTGCAG (site GACGGGGCTCT) | 2.59
35 | GACGTACCTTGGGTTCTAACCTGTTGCCT (site GACATACCTAG) | 0.428
36 | GACGTACCTTGGGTTCTAACCTGTTGCCT (site GACCTACCTAG) | 0.133
37 | GACGTACCTTGGGTTCTAACCTGTTGCCT (site GACGTACCTAG) | 1.31
38 | GACGTACCTTGGGTTCTAACCTGTTGCCT (site GACTTACCTAG) | 0.0104
39 | GACGTAGCTTGGGTTCTAACCTGTTGCCT (site GACGTAGCTAG) | 1.6
40 | GACGTAGCTTGGGTTCTAACCTGTTGCCT (site GCCGTAGCTAG) | 0.083
41 | GACGTAGCTTGGGTTCTAACCTGTTGCCT (site GGCGTAGCTAG) | 0.52
42 | GACGTAGCTTGGGTTCTAACCTGTTGCCT (site GTCGTAGCTAG) | 0.279
43 | GACGTTGCTTGGGTTCTAACCTGTTGCCT (site GACGTTGCTAG) | 1.32
44 | GACGTTGCTTGGGTTCTAACCTGTTGCCT (site GACTTTACTAG) | 0.102

Row | Sequence | recombinant barcode read abundance (log10)
45 | GACTACCCTTGGGTTCTAACCTGTTGCCT (site ATGCTGTCTTA) | 0.0344
46 | GACTACCCTTGGGTTCTAACCTGTTGCCT (site GACTACCCTAG) | 2.2
47 | GACTCCGCTTGGGTTCTAACCTGTTGCCT (site GACTCCGCTAG) | 0.876
48 | GACTCCGCTTGGGTTCTAACCTGTTGCCT (site TACTCCGCTAG) | 0.692
49 | GACTCGACTTGGGTTCTAACCTGTTGCTT (site GAATCAACTAA) | 0.122
50 | GACTCGACTTGGGTTCTAACCTGTTGCTT (site GACTCGACTAA) | 0.395
51 | GACTCTCCTTGGGTTCTAACCTGTTGCTT (site GACTCTCCTAA) | 1.53
52 | GACTCTCCTTGGGTTCTAACCTGTTGCTT (site GACTCTCCTAC) | 0.0892
53 | GACTCTCCTTGGGTTCTAACCTGTTGCTT (site GACTCTCCTAG) | 0.029
54 | GACTCTCCTTGGGTTCTAACCTGTTGCTT (site GACTCTCCTAT) | 0.241
55 | GACTGGTCTTGGGTTCTAACCTGTTGCAT (site GACTGGTCTAG) | 0.969
56 | GACTGGTCTTGGGTTCTAACCTGTTGCAT (site GACTGGTCTAT) | 1.6
57 | GACTGGTCTTGGGTTCTAACCTGTTGCCT (site GACTGGTCTAG) | 1.45
58 | GACTGGTCTTGGGTTCTAACCTGTTGCCT (site GACTGGTCTAT) | 0.364
59 | GACTTACCTTGGGTTCTAACCTGTTGCCT (site GACATACCTAG) | 0.134
60 | GACTTACCTTGGGTTCTAACCTGTTGCCT (site GACCTACCTAG) | 1.43
61 | GACTTACCTTGGGTTCTAACCTGTTGCCT (site GACGTACCTAG) | 0.111
62 | GACTTACCTTGGGTTCTAACCTGTTGCCT (site GACTTACCTAG) | 0.843
63 | GACTTGCCTTGGGTTCTAACCTGTTGCAT (site GACTTACCTAT) | 0.0511
64 | GACTTGCCTTGGGTTCTAACCTGTTGCAT (site GACTTCCCTAT) | 0.113
65 | GACTTGCCTTGGGTTCTAACCTGTTGCAT (site GACTTGCCTAT) | 0.313
66 | GACTTGCCTTGGGTTCTAACCTGTTGCAT (site GACTTTCCTAT) | 0.813

Row | Sequence | recombinant barcode read abundance (log10)
67 | GAGAAGACTTGGGTTCTAACCTGTTGCGT (site ACTCGTCCTTA) | 0.118
68 | GAGAAGACTTGGGTTCTAACCTGTTGCGT (site GAGAAGACTAC) | 2.56
69 | GAGACATCTTGGGTTCTAACCTGTTGCCT (site GAGAAATCTAG) | 0.11
70 | GAGACATCTTGGGTTCTAACCTGTTGCCT (site GAGACATCTAG) | 0.732
71 | GAGACATCTTGGGTTCTAACCTGTTGCCT (site GAGAGATCTAG) | 0.463
72 | GAGACATCTTGGGTTCTAACCTGTTGCCT (site GAGATATCTAG) | 0.206
73 | GAGAGAACTTGGGTTCTAACCTGTTGCCT (site CCATAGGCTCA) | 0.0856
74 | GAGAGAACTTGGGTTCTAACCTGTTGCCT (site GAGAGAACTAG) | 1.51
75 | GAGAGGTCTTGGGTTCTAACCTGTTGCGT (site GAGAGGTCTAA) | 0.502
76 | GAGAGGTCTTGGGTTCTAACCTGTTGCGT (site GAGAGGTCTAC) | 2.5
77 | GAGAGGTCTTGGGTTCTAACCTGTTGCGT (site GAGAGGTCTAG) | 0.613
78 | GAGAGGTCTTGGGTTCTAACCTGTTGCGT (site GAGAGGTCTAT) | 1.53
79 | GAGAGTCCTTGGGTTCTAACCTGTTGCCA (site ATTGAGACTAA) | 0.281
80 | GAGAGTCCTTGGGTTCTAACCTGTTGCCA (site GAGAGTCCTTG) | 1.24
81 | GAGATTCCTTGGGTTCTAACCTGTTGCCT (site CAGATTCCTAG) | 0.0463
82 | GAGATTCCTTGGGTTCTAACCTGTTGCCT (site GAGATTCCTAG) | 0.399
83 | GAGCAAACTTGGGTTCTAACCTGTTGCCT (site GAGCAAACTAG) | 1.2
84 | GAGCAAACTTGGGTTCTAACCTGTTGCCT (site GATCAATCTAG) | 0.16
85 | GAGCATACTTGGGTTCTAACCTGTTGCCT (site GAGCATACTAG) | 1.62
86 | GAGCATACTTGGGTTCTAACCTGTTGCCT (site GAGGGTACTAG) | 0.0325
